Experimental data reported in ChEMBL document CHEMBL1142425, “Bromophenols from the marine red alga Polysiphonia urceolata with DPPH radical scavenging activity” (J Nat Prod, 2008).
pIC50: −log10 of the molar value.

assay: DPPH radical scavenging activity; type: functional

| pIC50 | Structure (SMILES) |
| --- | --- |
| 4.45 | O=Cc1cc(Br)c(O)c(Br)c1 |
| 5.09 | Oc1cc2c(c(Br)c1O)COCc1cc(O)c(O)c(Br)c1-2 |
| 5.17 | Oc1cc2c(cc1O)-c1c(cc(Br)c(O)c1O)CC2 |
| 4.69 | O=Cc1cc(O)c(O)c(Br)c1 |
| 5.21 | Oc1cc2c(c(Br)c1O)-c1c(cc(Br)c(O)c1O)CC2 |
| 4.08 | Cc1cc(C(C)(C)C)c(O)c(C(C)(C)C)c1 [BUTYLATED HYDROXYTOLUENE] |
| 4.82 | CO[C@@H]1Oc2c(O)c(Br)cc3c2-c2c1cc(Br)c(O)c2O[C@H]3OC [URCEOLATOL] |
